The subject of this test is primary HSCs. Put plainly: Activation of primary mouse HSCs on untreated dishes (Example 1): α-SMA qRT-PCR, immunostaining, in-cell Western. Type of test: cell-based, C57BL/6J mice. From the text: Primary HSCs were isolated from C57BL/6J mouse liver using the collagenase/pronase digestion method (see Weiskirchen et al. Fibrosis Research, 2005, vol. 117, pp. 99-113). In brief, mice were anesthetized with ketamine/xylazine (120/6 mpk) (Butler Schein, Dublin, Ohio). Abdominal and chest cavities were opened to expose the portal vein and to locate the heart and vena cava, respectively. Subsequently, a 20 G×1″ I.V. catheter (Terumo, Somerset, N.J.) was inserted into the vena cava through the right atrium and the portal vein was cut. A mouse liver was perfused at 5 mL/min with 25 mL SC-1 solution consisting of the following (per L); 8000 mg NaCl, 400 mg KCl, 88.17 mg NaH2PO4 2H2O, 120.45 mg Na2HPO4 12H2O, 2380 mg 4-(2-hydroxyethyl)-1-piperazineethanesulfonic acid (HEPES), 350 mg NaHCO3, 190 mg ethylene glycol tetraacetic acid, and 900 mg glucose, pH 7.2-7.3. The liver was, then, digested with 300 μg/mL pronase E (Roche, Mannheim, Germany) in SC-2 solution consisting of 8000 mg NaCl, 400 mg KCl, 88.17 mg NaH2PO4 2H2O, 120.45 mg Na2HPO4 12H2O, 2380 mg HEPES, 350 mg NaHCO3, and 560 mg CaCl2 2H2O, per L, pH 7.2-7.3, followed by 600 μg/mL collagenase D (Roche, Mannheim, Germany) in SC-2 solution at 5 mL/min for 5 min each. The digested liver was harvested and filtered through a 100 μm cell strainer (Fisher Scientific, Pittsburgh, Pa.). The hepatic cells were then centrifuged at 60×g for 1 min to separate non-parenchymal cells from hepatocytes. The supernatant containing non-parenchymal cells was separated based on density using a top layer of Gey's Balanced Salt Solution (GBSS), a middle layer of 10% Nycodenz (Axis-Shield, Scotland) and a bottom layer of 14.5% Nycodenz diluted in GBSS. The tube was centrifuged at 2100×g or 20 min and the primary HSCs were collected from the interface between the GBSS and 10% Nycodenz.
LX-2 cells were kindly provided by Dr. Scott Friedman at the Icahn School of Medicine at Mount Sinai (New York, N.Y.). […]

`CC1=C(/C=C/C(C)=C/C=C/C(C)=C/C=C/C=C(C)/C=C/C=C(C)/C=C/C2=C(C)C(=O)C(O)CC2(C)C)C(C)(C)CC(O)C1=O` (stereo not drawn) [ASTX, astaxanthin]: the “α-SMA mRNA levels” value (25 μM ASTX added for 2 days during HSC activation (FIG. 6A)) is reported as “significantly reduced”. For the same molecule, the “decrease of α-SMA protein (in-cell Western)” value (ASTX treatment at days 0, 2 and 4 until day 6, vs control without ASTX (FIG. 6C)) was 30-40%. Moreover, the “α-SMA protein levels (immunostaining)” value (day 4 of incubation, ASTX for 2 days (FIG. 6B)) is listed as “markedly decreased”.
